Test results: PubChem BioAssay (NCI)
Several values for one entry are separate records, joined by “and”; a condition that tells them apart may be missing. Identical values can stand only once.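 1) Cells in 96-well plates. 2) Compound, 48 h, 5 concentrations. 3) Linear interpolation between surrounding doses. 4) Unreached endpoint = highest concentration. The concentration for 50% growth inhibition is given as GI50. TGI is the concentration that stops growth completely.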

How the values were obtained:
Test in all cases: NCI-60 cell line screen, 48 h
[1] = tested on: HCT-15 colon
[2] = tested on: UACC-62 melanoma
[3] = tested on: A498 renal
[4] = tested on: CAKI-1 renal
[5] = tested on: EKVX NSCLC
[6] = tested on: NCI-H522 lung
[7] = tested on: SF-295 CNS
[8] = tested on: HOP-92 NSCLC
[9] = tested on: SK-MEL-5 melanoma
[10] = tested on: NCI-H460 lung
[11] = tested on: TK-10 renal
[12] = tested on: UO-31 renal
[13] = tested on: MDA-MB-231 breast
[14] = tested on: HS 578T breast
[15] = tested on: ACHN renal
[16] = tested on: SF-268 CNS
[17] = tested on: IGROV1 ovarian
[18] = tested on: RPMI-8226 leukemia
[19] = tested on: COLO 205 colon
[20] = tested on: U251 CNS
[21] = tested on: UACC-257 melanoma
[22] = tested on: HOP-62 NSCLC
[23] = tested on: SF-539 CNS
[24] = tested on: NCI-H226 lung
[25] = tested on: OVCAR-3 ovarian
[26] = tested on: SN12C renal
[27] = tested on: T-47D breast
[28] = tested on: M14 melanoma
[29] = tested on: PC-3 prostate
[30] = tested on: LOX IMVI melanoma
[31] = tested on: A549 NSCLC
[32] = tested on: NCI/ADR-RES ovarian
[33] = tested on: SNB-19 CNS
[34] = tested on: MOLT-4 leukemia
[35] = tested on: NCI-H23 lung
[36] = tested on: HCC-2998 colon
[37] = tested on: SR leukemia
[38] = tested on: DU-145 prostate
[39] = tested on: MDA-N
[40] = tested on: SW-620 colon
[41] = tested on: 786-0 renal
[42] = tested on: HCT-116 colon
[43] = tested on: KM12 colon
[44] = tested on: BT-549 breast
[45] = tested on: SK-OV-3 ovarian
[46] = tested on: SK-MEL-28 melanoma
[47] = tested on: RXF 393 renal
[48] = tested on: MALME-3M melanoma
[49] = tested on: CCRF-CEM leukemia
[50] = tested on: OVCAR-8 ovarian
[51] = tested on: MDA-MB-435
[52] = tested on: K-562 leukemia
[53] = tested on: MCF7 breast
[54] = tested on: HL-60(TB) leukemia
[55] = tested on: HT29 colon
[56] = tested on: OVCAR-4 ovarian
[57] = tested on: SNB-75 CNS
[58] = tested on: OVCAR-5 ovarian
[59] = tested on: SK-MEL-2 melanoma

SMILES: Cc1[nH]c2ncn(Nc3ccccc3)c(=N)c2c1Cc1ccccc1
- TGI [1]: > 100 µM
- TGI [2]: > 100 µM
- TGI [3]: > 100 µM
- TGI [4]: > 70.6 µM
- TGI [5]: > 100 µM
- TGI [6]: > 100 µM
- TGI [7]: > 100 µM
- TGI [8]: > 100 µM
- TGI [9]: > 100 µM
- TGI [10]: > 100 µM
- TGI [11]: > 100 µM
- TGI [12]: > 100 µM
- TGI [13]: > 100 µM
- TGI [14]: > 100 µM
- TGI [15]: > 100 µM
- TGI [16]: > 100 µM
- TGI [17]: 98.4 µM
- TGI [18]: > 100 µM
- TGI [19]: > 100 µM
- TGI [20]: > 100 µM
- TGI [21]: > 100 µM
- TGI [22]: > 100 µM
- TGI [23]: > 100 µM
- TGI [24]: > 100 µM
- TGI [25]: > 100 µM
- TGI [26]: > 100 µM
- TGI [27]: > 86.9 µM
- TGI [28]: > 100 µM
- TGI [29]: > 100 µM
- TGI [30]: > 100 µM
- TGI [31]: > 100 µM
- TGI [32]: > 100 µM
- TGI [33]: > 100 µM
- TGI [34]: > 100 µM
- TGI [35]: > 100 µM
- TGI [36]: > 100 µM
- TGI [37]: > 100 µM
- TGI [38]: > 100 µM
- TGI [39]: > 100 µM
- TGI [40]: > 100 µM
- TGI [41]: > 100 µM
- TGI [42]: > 100 µM
- TGI [43]: > 56.8 µM
- TGI [44]: > 100 µM
- TGI [45]: > 100 µM
- TGI [46]: > 100 µM
- TGI [47]: > 91.6 µM
- TGI [48]: > 100 µM
- TGI [49]: > 100 µM
- TGI [50]: > 100 µM
- TGI [51]: > 100 µM
- TGI [52]: > 100 µM
- TGI [53]: > 100 µM
- TGI [54]: > 100 µM
- TGI [55]: > 100 µM
- TGI [56]: > 100 µM
- TGI [57]: > 100 µM
- TGI [58]: > 100 µM

SMILES: CC(=O)O[C@H]1CC2C(C3CC[C@H](C(C)CCC(N)=O)[C@]31C)[C@H](OC(C)=O)C[C@@H]1CC3(CC[C@]21C)OOC1(CCC(C)CC1)OO3 (stereo not given in full)
- TGI [1]: 4.89 µM and 3.43 µM
- GI50 [2]: 1.85 µM
- TGI [2]: 3.99 µM
- TGI [3]: 29.3 µM and 24.4 µM
- TGI [4]: 5.15 µM and 3.25 µM
- GI50 [5]: 1.01 µM and 1.43 µM
- TGI [5]: 2.35 µM and 2.78 µM
- TGI [6]: 3.6 µM and 2.94 µM
- TGI [7]: 12.3 µM and 3.59 µM
- TGI [8]: 6.25 µM and 3.56 µM
- TGI [9]: 11.6 µM and 3.22 µM
- TGI [10]: 8.76 µM
- TGI [11]: 8.39 µM and 3.57 µM
- TGI [12]: 3.08 µM and 2.64 µM
- TGI [13]: 4.94 µM
- TGI [14]: 5.77 µM and 5.51 µM
- TGI [15]: 3.88 µM and 2.93 µM
- TGI [16]: 4.46 µM
- GI50 [17]: 1.54 µM and 0.491 µM
- TGI [17]: 3.07 µM and 1.84 µM
- TGI [18]: 4.07 µM
- TGI [19]: 3.19 µM and 3.12 µM
- TGI [20]: 3.78 µM
- TGI [21]: 22.9 µM and 19.2 µM
- GI50 [22]: 1.47 µM and 1.07 µM
- TGI [22]: 2.96 µM and 2.31 µM
- TGI [23]: 7.1 µM and 3.37 µM
- TGI [24]: 6.2 µM and 3.15 µM
- TGI [25]: 3.51 µM and 3.8 µM
- TGI [26]: 5.69 µM and 3.24 µM
- TGI [27]: 4.19 µM and 4.21 µM
- TGI [28]: 8.64 µM and 3.76 µM
- TGI [29]: 9.44 µM and 4.29 µM
- TGI [59]: 4.37 µM and 3.2 µM
- TGI [31]: 6.13 µM
- TGI [32]: 8.01 µM and 3.28 µM
- GI50 [33]: 5.31 µM and 2.62 µM
- TGI [33]: 19.4 µM and 5.72 µM
- TGI [34]: 4.47 µM and 4.44 µM
- TGI [35]: 5.29 µM and 3.45 µM
- TGI [36]: 4.57 µM and 3.96 µM
- TGI [37]: 3.28 µM
- GI50 [38]: 1.82 µM
- TGI [38]: 3.26 µM
- TGI [39]: 4.91 µM
- TGI [40]: 11.5 µM and 4.24 µM
- TGI [41]: 3.78 µM and 3.2 µM
- TGI [42]: 5.36 µM and 3.72 µM
- TGI [43]: 4.69 µM and 3.41 µM
- TGI [44]: 6.43 µM and 3.35 µM
- GI50 [45]: 4.3 µM and 2.11 µM
- TGI [45]: 16.3 µM and 3.94 µM
- GI50 [46]: 5.65 µM and 2.48 µM
- TGI [46]: 14.3 µM and 8.13 µM
- TGI [47]: 9.72 µM
- TGI [48]: 9.95 µM and 4.07 µM
- TGI [49]: 3.33 µM and 4.43 µM
- TGI [50]: 4.56 µM and 3.12 µM
- TGI [51]: 4.47 µM and 3.23 µM
- TGI [52]: 16.8 µM and 5 µM
- TGI [53]: 15.2 µM and 5.01 µM
- TGI [54]: 6.13 µM and 4.82 µM
- TGI [55]: 7.01 µM
- TGI [56]: 3.52 µM and 3.02 µM
- GI50 [57]: 1.98 µM
- TGI [57]: 4.05 µM
- TGI [58]: 4.86 µM and 3.66 µM
